Test results published in the supplement of paper PMC8671470.

Tests used:
Conditions in all cases: 72 h
[1] = test system: myeloid leukemia patient primary cells Pat.15; assay: area under dose-response curve (viability, 1 nM-10 uM) (fraction (0-1)); higher = more sensitive
Description: (§1)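 AUC (0–1, higher = more sensitive) of the 5-point dose–response (1 nM–10 µM, 72 h, CellTiter-Glo) in primary AML/CML patient mononuclear cells. 0.030103 is the floor for inactive compounds.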

[2] = test system: myeloid leukemia patient primary cells Pat.7; assay: as above
Description: as §1

[3] = test system: myeloid leukemia patient primary cells Pat.9; assay: as above
Description: as §1

[4] = test system: myeloid leukemia patient primary cells Pat.4; assay: as above
Description: as §1

[5] = test system: myeloid leukemia patient primary cells Pat.3; assay: as above
Description: as §1

[6] = test system: myeloid leukemia patient primary cells Pat.11; assay: as above
Description: as §1

[7] = test system: myeloid leukemia patient primary cells Pat.8; assay: as above
Description: as §1

[8] = test system: myeloid leukemia patient primary cells Pat.1; assay: as above
Description: as §1

[9] = test system: myeloid leukemia patient primary cells Pat.2; assay: as above
Description: as §1

[10] = test system: myeloid leukemia patient primary cells Pat.10; assay: as above
Description: as §1

[11] = test system: myeloid leukemia patient primary cells Pat.6; assay: as above
Description: as §1

[12] = test system: myeloid leukemia patient primary cells Pat.14; assay: as above
Description: as §1

[13] = test system: myeloid leukemia patient primary cells Pat.5; assay: as above
Description: as §1

[14] = test system: myeloid leukemia patient primary cells Pat.13; assay: as above
Description: as §1

[15] = test system: myeloid leukemia patient primary cells Pat.15; assay: cell viability (% survival relative to DMSO control); higher = less cytotoxic
Method in brief: (§2)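 Thawed, Ficoll-purified mononuclear cells from AML or CML patients in RPMI 1640 with 10% FBS were seeded at 10,000 cells/well on 384-well plates pre-printed with 70 compounds at five tenfold concentrations, 1–10,000 nM, in duplicate, for 72 h. Viability was read by CellTiter-Glo and normalised to DMSO and 10 μM proteasome-inhibitor wells. Where given, area under the curve came from four-parameter log-logistic fits (drc, PharmacoGx R packages).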

[16] = test system: myeloid leukemia patient primary cells Pat.7; assay: as above
Method in brief: as §2

[17] = test system: myeloid leukemia patient primary cells Pat.11; assay: as above
Method in brief: as §2

[18] = test system: myeloid leukemia patient primary cells Pat.2; assay: as above
Method in brief: as §2

[19] = test system: myeloid leukemia patient primary cells Pat.10; assay: as above
Method in brief: as §2

[20] = test system: myeloid leukemia patient primary cells Pat.6; assay: as above
Method in brief: as §2

HL-60 [21] = assay: cell viability (% survival relative to DMSO control); higher = less cytotoxic
Method in brief: (§3)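 HL-60 cells in RPMI 1640 with 10% FBS were rescreened against the full library on 384-well plates at five tenfold concentrations, 1–10,000 nM, in duplicate. Each screen was run with DMSO or 100 nM of one of three metabolic inhibitors, for 72 h at 37 °C, 5% CO2. Viability was read by CellTiter-Glo and normalised to DMSO and 10 μM proteasome-inhibitor wells. Where given, area under the curve came from four-parameter log-logistic fits (drc, PharmacoGx).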

HL-60 [22] = assay: area under dose-response curve (viability, 1 nM-10 uM) (fraction (0-1)); higher = more sensitive
Method in brief: as §3

[23] = test system: myeloid leukemia patient primary cells Pat.12; assay: area under dose-response curve (viability, 1 nM-10 uM) (fraction (0-1)); higher = more sensitive
Description: as §1

C=CCN(C)CCCCCCOc1ccc(C(=O)c2ccc(Br)cc2)c(F)c1.O=C(O)/C=C/C(=O)O [Ro 48-8071 fumarate]
Conditions | area under dose-response curve
[1] | < 0.0301
[2] | 0.217
[3] | 0.13
[4] | 0.0305
[5] | 0.576
[6] | 0.0457
[7] | 0.0337
[8] | 0.109
[9] | 0.0431
[10] | 0.146
[11] | 0.0624
[12] | 0.0802
[13] | 0.146
[14] | 0.0673

Conditions | area under dose-response curve, co-treatment: AZD3965 100 nM | area under dose-response curve, co-treatment: DMSO vehicle | area under dose-response curve, co-treatment: GSK2194069 100 nM | area under dose-response curve, co-treatment: pictilisib 100 nM | cell viability, 1 nM [%] | cell viability, 10 nM [%] | cell viability, 100 nM [%] | cell viability, 1000 nM [%] | cell viability, 10000 nM [%]
HL-60 [22] | 0.0549 | < 0.0301 | 0.0331 | 0.112 | – | – | – | – | –
[15] | – | – | – | – | 84 | 94.1 | 99.4 | 94.3 | 56.6
[16] | – | – | – | – | > 100 | > 100 | 85.7 | 61.7 | < 0
[17] | – | – | – | – | 98.4 | 100 | 97.9 | 96.5 | 72.2
[18] | – | – | – | – | 98.4 | 99.7 | 97.6 | 97.1 | 71.1
[19] | – | – | – | – | 80.8 | 61.7 | 63.7 | 73.8 | < 0
[20] | – | – | – | – | 99.9 | > 100 | 87.1 | 92.9 | 37.7

cell viability [%], HL-60 [21]
Conditions | 0.001 µM | 0.01 µM | 0.1 µM | 1 µM | 10 µM
co-treatment: AZD3965 100 nM | 99.39 | 92.3 | 103 | 94.9 | 44.1
co-treatment: DMSO vehicle | 99.1 | 86.3 | 107 | 102 | 75.5
co-treatment: GSK2194069 100 nM | 103 | 68.3 | 101 | 104 | 53
co-treatment: pictilisib 100 nM | 113 | 93.6 | 99.37 | 84.2 | 38.3

O=c1cc(N2CCOCC2)oc2c(-c3ccccc3)cccc12
Conditions | area under dose-response curve
[1] | 0.136
[2] | < 0.0301
[3] | 0.736
[4] | 0.18
[5] | < 0.0301
[6] | 0.0446
[8] | 0.14
[9] | 0.0446
[10] | 0.771
[11] | < 0.0301
[12] | 0.0381
[13] | 0.782
[14] | 0.0372
[23] | < 0.0301

Conditions | area under dose-response curve, co-treatment: AZD3965 100 nM | area under dose-response curve, co-treatment: GSK2194069 100 nM | area under dose-response curve, co-treatment: pictilisib 100 nM | cell viability, 1 nM [%] | cell viability, 10 nM [%] | cell viability, 100 nM [%] | cell viability, 1000 nM [%] | cell viability, 10000 nM [%]
HL-60 [22] | < 0.0301 | < 0.0301 | 0.058 | – | – | – | – | –
[15] | – | – | – | 77.5 | > 100 | 97 | 81.7 | 10.2
[16] | – | – | – | 84.4 | 64.8 | 94.8 | 92.1 | 80.5
[17] | – | – | – | 88.7 | 94.2 | 96.7 | 91.1 | 65.2
[18] | – | – | – | 92.1 | 87.9 | 99.7 | 91.1 | 67.2
[19] | – | – | – | 31.3 | 46.9 | 78.1 | 50.8 | 22.6
[20] | – | – | – | 91.8 | 82.3 | 93.2 | 97 | 68.3

cell viability [%], HL-60 [21]
Conditions | 0.001 µM | 0.01 µM | 0.1 µM | 1 µM | 10 µM
co-treatment: AZD3965 100 nM | 99.5 | 101 | 103.3 | 100 | 75.2
co-treatment: DMSO vehicle | 99.2 | 100 | 102 | 91.6 | 86
co-treatment: GSK2194069 100 nM | 107 | 101.4 | 105 | 99.4 | 84
co-treatment: pictilisib 100 nM | 110 | 104 | 103 | 92.2 | 79.6

Cc1c2c(=O)n(-c3ccccc3Cl)[nH]c2cc(=O)n1Cc1ccccn1
Conditions | area under dose-response curve
[1] | < 0.0301
[2] | < 0.0301
[3] | < 0.0301
[4] | < 0.0301
[5] | < 0.0301
[6] | < 0.0301
[7] | < 0.0301
[8] | < 0.0301
[9] | < 0.0301
[10] | 0.0358
[11] | < 0.0301
[12] | < 0.0301
[14] | < 0.0301
[23] | < 0.0301

cell viability [%]
Conditions | [15] | [16] | [17] | [18] | [19] | [20]
1 nM | 77.3 | 13.2 | 88 | 86.2 | 27.2 | 84.6
10 nM | 83.4 | 82.9 | 95.7 | 92.7 | 64.5 | 91.1
100 nM | 81.8 | 63.7 | 88.1 | 88.6 | 42.2 | 91.7
1000 nM | 95.5 | 91 | 99.3 | 94.6 | 86.1 | > 100
10000 nM | 93 | > 100 | 99.1 | > 100 | 42.3 | > 100
